{"source": "patent US20210386768A1", "about": "“COMBINATION MEDICINE” (FUJIFILM Corporation, priority 2019, published 2021)", "assay_type_in_all_cases": "cell-based, human", "key": {"[1]": {"system": "Cell derived from FLT3-ITD mutation-negative leukemia patient", "experiment": "Proliferation inhibitory activity against cells derived from a leukemia patient by combined use (CellTiter-Glo, combination index), FLT3-ITD negative", "experimental": "(§1) <Evaluation of Proliferation Inhibitory Activity Against Cell Derived from Leukemia Patient by Combined Use of Existing Anti-Cancer Agent>\n(§2) Monocytes isolated from bone marrow or peripheral blood of two leukemia patients (one patient is FLT3-ITD mutation-positive, and the other patient is FLT3-ITD mutation-negative) were used and cultured in MethoCult™ H4534 Classic Without EPO (Cat. #H4534, manufacture by […] technologies). During this test, all cell cultures were performed in a CO2 incubator (setting: 37° C., 5% CO2, water vapor saturated). Cells were diluted with medium to 5,000 cells/well/90 μL and seeded on a 96-well plate.\n(§3) After serially diluting with DMSO and further diluting with a medium, each of the test substance solutions having a concentration 10 times the final treatment concentration was prepared.\n(§4) In addition, a group (a positive control group) in which only a solvent containing no drugs was added to a well in which cells were plated and a group (a negative control group) in which only a solvent containing no drugs was added to a well in which only a medium was added were prepared.\n(§5) After the addition of the drug, cells were cultured for 7 or 8 days, and the cell viability was evaluated using CellTiter-Glo (registered trade mark) Reagent (Cat. #G7570, manufactured by Promega Corporation) using the amount of ATP in the cells as an indicator.\n(§6) The suppression rate was determined by assuming that the amount of luminescence signal in the negative control group corresponded to the suppression of cell viability by 100% and the amount of luminescence signal in the positive control group corresponded to the suppression of cell viability by 0%. The concentration (IC50 value) at which cell viability is suppressed by 50% was calculated using XLFit (registered trade mark) software Ver. 3 (manufactured by ITOCHU Techno-Solutions Corporation). The suppression effect (Fa, the fraction affected by the dose) was calculated by dividing the suppression rate by 100.\n(§7) The combination effect of the present invention was determined by calculating the combination index (CI), which is a quantitative indicator of the combination effect, using CalcuSyn (BIOSOFT) based on the value of the suppression effect.\n(§8) In the table, “Fa around 0.5” and “Fa around 0.75” mean the effect of suppressing the cell viability by about 50% and about 75%, respectively, in a case where drugs are used in combination."}, "[2]": {"system": "Cell derived from FLT3-ITD mutation-positive leukemia patient", "experiment": "Proliferation inhibitory activity against cells derived from a leukemia patient by combined use (CellTiter-Glo, combination index), FLT3-ITD positive", "experimental": "as §1, §2, §3, §4, §5, §6, §7, §8"}, "[3]": {"system": "FLT3-ITD mutation-positive leukemia cell line MV-4-11", "experiment": "Proliferation inhibitory activity against MV-4-11 by combined use of anti-cancer agents (CellTiter-Glo, combination index)", "experimental": "<Evaluation of Proliferation Inhibitory Activity Against FLT3-ITD Mutation-Positive Leukemia Cell Line MV-4-11 by Combined Use of Anti-Cancer Agent>\nMV-4-11 cells which are a human FLT3-ITD mutation-positive leukemia cell line were subcultured in an RPMI-1640 medium containing 10% serum. During this test, all cell cultures were performed in a CO2 incubator (setting: 37° C., 5% CO2, water vapor saturated). Cells were diluted with a medium containing 10% serum to 1,000 cells/well/20 μL and seeded on a 384-well plate.\nAfter being serially diluted with DMSO and further being diluted with a medium containing 10% serum, each of the test substance solutions having a concentration 10 times the final treatment concentration was prepared.\nas §4\nAfter the addition of the drug, cells were cultured for 3 days, and the cell viability was evaluated using CellTiter-Glo (registered trade mark) Reagent (Cat. #G7570, manufactured by Promega Corporation) using the amount of ATP in the cells as an indicator.\nas §6, §7, §8"}, "[4]": {"details": "in combination with Compound A1"}, "[5]": {"details": "in combination with Compound A1, concentration fixing ratio A1:decitabine 1:10, A1:venetoclax 1:1, 7 or 8 days"}, "[6]": {"details": "in combination with Compound A1, MV-4-11"}}, "data": [{"substance": "Venetoclax", "values": [{"measurement": "combination effect in words, suppression effect around 0.5", "setting": "[1]; [4]", "result": "strong synergistic effect"}, {"measurement": "combination effect in words, suppression effect around 0.75", "setting": "[1]; [4]", "result": "strong synergistic effect"}, {"measurement": "combination index (CI), Fa around 0.5", "setting": "[1]; [5]", "result": "+++ (Less than 0.7, a strong synergistic effect)"}, {"measurement": "combination index (CI), Fa around 0.75", "setting": "[1]; [5]", "result": "+++ (Less than 0.7, a strong synergistic effect)"}, {"measurement": "combination effect in words, suppression effect around 0.5", "setting": "[2]; [4]", "result": "strong synergistic effect"}, {"measurement": "combination effect in words, suppression effect around 0.75", "setting": "[2]; [4]", "result": "strong synergistic effect"}, {"measurement": "combination index (CI), Fa around 0.5", "setting": "[2]; [5]", "result": "+++ (Less than 0.7, a strong synergistic effect)"}, {"measurement": "combination index (CI), Fa around 0.75", "setting": "[2]; [5]", "result": "+++ (Less than 0.7, a strong synergistic effect)"}, {"measurement": "combination index (CI), Fa around 0.5", "setting": "[3]; in combination with Compound A1 (succinate salt), concentration fixing ratio A1:decitabine 1:3,000, A1:venetoclax 1:120, MV-4-11, 3 days, average of 4 experiments, about 50% suppression of cell viability", "result": "++ (0.7 or more and less than 0.85, a moderate synergistic effect)"}, {"measurement": "combination index (CI), Fa around 0.75", "setting": "[3]; in combination with Compound A1 (succinate salt), concentration fixing ratio A1:decitabine 1:3,000, A1:venetoclax 1:120, MV-4-11, 3 days, average of 4 experiments, about 75% suppression of cell viability", "result": "+++ (Less than 0.7, a strong synergistic effect)"}, {"measurement": "combination effect in words, suppression effect around 0.5", "setting": "[3]; [6]", "result": "moderate synergistic effect"}, {"measurement": "combination effect in words, suppression effect around 0.75", "setting": "[3]; [6]", "result": "strong synergistic effect"}]}]}
